Results: US12121512B2, “Anti-fungal agent” (priority 2019, dated 2024)
≈ marks a conversion by molar mass, not a printed value.

Key:
[1] = system: Cryptococcus neoformans var. grubii clinical isolates and multi-azole resistant strains; assay: CLSI M27-A3 broth microdilution MIC assay; type: cell-based; conditions: for MIC: Cryptococcus neoformans
Description: Six isolates of cryptococcus were obtained from skin-infected cats and five from systemically infected cats, for a total of 11 strains. One strain of cat skin cryptococcus and one strain of cat systemic cryptococcus were fluconazole-resistant.
(§1) Three isolates of cryptococcus were acquired from skin-infected humans.
(§2) All of the above-acquired isolates were Cryptococcus neoformans var. grubii strains (type A).
(§3) Further, as described below, 3 multidrug-resistant strains resistant to fluconazole (FLCZ) and voriconazole (VRCZ) as azole-based antifungal agents were acquired.
Clinically separated fluconazole (FLCZ) resistant Cryptococcus neoformans cells (2.3×10^5) were inoculated on Sabouraud glucose agar medium containing 3 μg/ml of voriconazole (VRCZ), and cultured at room temperature for 7 days. Thereafter, 12 colonies generated on the plate were inoculated on Sabouraud glucose agar medium containing 5 μg/ml of VRCZ. This was cultured at room temperature for 10 days, and the obtained colonies were further subcultured, to obtain 3 azole-based multidrug-resistant strains.
The strains obtained in Example 1 were maintained on Sabouraud glucose agar medium until the test of sensitivity to antifungal compounds.
Sensitivity to ravuconazole (RVCZ) was determined according to the CLSI M27-A3 guideline using broth microdilution assay. The minimum inhibitory concentration (MIC) was measured after culturing at 35° C. for 72 hours. MIC was defined as the lowest concentration that induces significant inhibition of growth (inhibition of about 50% or more).
CLSI M27-A3 test and E-test MIC assay were performed using Candida parapsilosis ATCC 22019 and Candida kruzei ATCC 6258 purchased from ATCC as controls. As a result, a high correlation was observed between the MIC results of the azole-based drugs obtained in the CLSI M27-A3 test and the E-test, so the results of both were compared.

[2] = system: Cryptococcus neoformans var. grubii clinical isolates and multi-azole resistant strains; assay: microbe, parasite or virus in culture; type: cell-based; conditions: E-test; for MIC range: 14 isolates (Nos. 1-14); for MIC: Cryptococcus neoformans
Description: Six isolates of cryptococcus were obtained from skin-infected cats and five from systemically infected cats, for a total of 11 strains.
as §1, §2, §3
Thereafter, 12 colonies generated on the plate were inoculated on Sabouraud glucose agar medium containing 5 μg/ml of VRCZ. This was cultured at room temperature for 10 days, and the obtained colonies were further subcultured, to obtain 3 azole-based multidrug-resistant strains.
Sensitivity to fluconazole (FLCZ), itraconazole (ITCZ) and voriconazole (VRCZ) was evaluated using the E-test. […] E-test gradient strips were purchased from AB BIODISK. The MICs for FLCZ, ITCZ and VRCZ were determined after culturing at 35° C. for 72 hours. Each isolate was tested twice at shifted times, and each test included twice measurements.

[3] = 72 h, Strain No. 1, Feline cutaneous cryptococcosis, 35° C.
[4] = 72 h, Strain No. 2, Feline systemic cryptococcosis, 35° C.
[5] = 72 h, Strain No. 3, Feline systemic cryptococcosis, 35° C.
[6] = 72 h, Strain No. 4, Feline cutaneous cryptococcosis, 35° C.
[7] = 72 h, Strain No. 6, Feline systemic cryptococcosis, 35° C.
[8] = 72 h, Strain No. 7, Feline systemic cryptococcosis, 35° C.
[9] = 72 h, Strain No. 8 (FLCZ resistant strain), Feline systemic cryptococcosis, 35° C.
[10] = 72 h, Strain No. 9, Feline systemic cryptococcosis, 35° C.
[11] = 72 h, Strain No. 10, Feline cutaneous cryptococcosis, 35° C.
[12] = 72 h, Strain No. 11, Human cutaneous cryptococcosis, 35° C.
[13] = 72 h, Strain No. 12, Human cutaneous cryptococcosis, 35° C.
[14] = 72 h, Strain No. 13, Human cutaneous cryptococcosis, 35° C.
[15] = 72 h, Strain No. 14 (FLCZ resistant strain), Feline cutaneous cryptococcosis, 35° C.
[16] = 72 h, Strain No. 15, Multi-azole resistance strain, 35° C.
[17] = 72 h, Strain No. 16, Multi-azole resistance strain, 35° C.
[18] = 72 h, Strain No. 17, Multi-azole resistance strain, 35° C.
[19] = azole-based multidrug-resistant strains (Nos. 15-17)
[20] = read-out: average MIC, 14 isolates (Nos. 1-14)
[21] = 72 h, Strain No. 5, Feline cutaneous cryptococcosis, 35° C.

Molecule `C[C@@H](c1nc(-c2ccc(C#N)cc2)cs1)[C@](O)(Cn1cncn1)c1ccc(F)cc1F` [RVCZ, ravuconazole] has an MIC range ([1]; 14 isolates (Nos. 1-14), CLSI M27-A3) of under 0.003125 to 0.25 µg/mL, an MIC ([1]; 72 h, Strain No. 1, Feline cutaneous cryptococcosis, CLSI M27-A3, 35° C.) of 0.0312 µg/mL (≈ 0.0714 µM) and an MIC ([1]; 72 h, Strain No. 2, Feline systemic cryptococcosis, CLSI M27-A3, 35° C.) of 0.0312 µg/mL (≈ 0.0714 µM). It also gave an MIC ([1]; 72 h, Strain No. 3, Feline systemic cryptococcosis, CLSI M27-A3, 35° C.) of 0.0312 µg/mL (≈ 0.0714 µM), an MIC ([1]; 72 h, Strain No. 4, Feline cutaneous cryptococcosis, CLSI M27-A3, 35° C.) of 0.0625 µg/mL (≈ 0.143 µM) and an MIC ([1]; 72 h, Strain No. 5, Feline cutaneous cryptococcosis, CLSI M27-A3, 35° C.) of 0.0625 µg/mL (≈ 0.143 µM). It also gave an MIC ([1]; 72 h, Strain No. 6, Feline systemic cryptococcosis, CLSI M27-A3, 35° C.) of 0.125 µg/mL (≈ 0.286 µM), an MIC ([1]; 72 h, Strain No. 7, Feline systemic cryptococcosis, CLSI M27-A3, 35° C.) of 0.0625 µg/mL (≈ 0.143 µM) and an MIC ([1]; 72 h, Strain No. 8 (FLCZ resistant strain), Feline systemic cryptococcosis, CLSI M27-A3, 35° C.) of 0.125 µg/mL (≈ 0.286 µM). It also gave an MIC ([1]; 72 h, Strain No. 9, Feline systemic cryptococcosis, CLSI M27-A3, 35° C.) of 0.0312 µg/mL (≈ 0.0714 µM), an MIC ([1]; 72 h, Strain No. 10, Feline cutaneous cryptococcosis, CLSI M27-A3, 35° C.) of 0.125 µg/mL (≈ 0.286 µM) and an MIC ([1]; 72 h, Strain No. 11, Human cutaneous cryptococcosis, CLSI M27-A3, 35° C.) of 0.0312 µg/mL (≈ 0.0714 µM). For the same molecule, the MIC ([1]; 72 h, Strain No. 12, Human cutaneous cryptococcosis, CLSI M27-A3, 35° C.) was 0.0312 µg/mL (≈ 0.0714 µM), the MIC ([1]; 72 h, Strain No. 13, Human cutaneous cryptococcosis, CLSI M27-A3, 35° C.) was 0.0312 µg/mL (≈ 0.0714 µM) and the MIC ([1]; 72 h, Strain No. 14 (FLCZ resistant strain), Feline cutaneous cryptococcosis, CLSI M27-A3, 35° C.) was 0.125 µg/mL (≈ 0.286 µM). The MIC ([1]; 72 h, Strain No. 15, Multi-azole resistance strain, CLSI M27-A3, 35° C.) was 0.5 µg/mL (≈ 1.14 µM), the MIC ([1]; 72 h, Strain No. 16, Multi-azole resistance strain, CLSI M27-A3, 35° C.) was 0.5 µg/mL (≈ 1.14 µM) and the MIC ([1]; 72 h, Strain No. 17, Multi-azole resistance strain, CLSI M27-A3, 35° C.) was 0.25 µg/mL (≈ 0.571 µM). The MIC ([1]; azole-based multidrug-resistant strains (Nos. 15-17), CLSI M27-A3) was 0.25 to 0.5 µg/mL (≈ 0.571 to 1.14 µM) and the MIC ([1]; read-out: average MIC, 14 isolates (Nos. 1-14), CLSI M27-A3) was 0.0376 µg/mL (≈ 0.0859 µM).

`C[C@@H](c1ncncc1F)[C@](O)(Cn1cncn1)c1ccc(F)cc1F` [VRCZ, voriconazole] showed an MIC range [2] of under 0.002 to 0.125 µg/mL, an MIC [2, 3] of 0.008 µg/mL (≈ 0.0229 µM) and an MIC [2, 4] of under 0.002 µg/mL. The MIC [2, 5] was 0.032 µg/mL (≈ 0.0916 µM), the MIC [2, 6] was 0.064 µg/mL (≈ 0.183 µM) and the MIC [2, 7] was 0.047 µg/mL (≈ 0.135 µM). The MIC [2, 8] was 0.032 µg/mL (≈ 0.0916 µM), the MIC [2, 9] was 0.094 µg/mL (≈ 0.269 µM) and the MIC [2, 10] was 0.012 µg/mL (≈ 0.0344 µM). For the same molecule, the MIC [2, 11] was 0.023 µg/mL (≈ 0.0658 µM), the MIC [2, 12] was 0.003 µg/mL (≈ 0.00859 µM) and the MIC [2, 13] was 0.006 µg/mL (≈ 0.0172 µM). For the same molecule, the MIC [2, 14] was 0.003 µg/mL (≈ 0.00859 µM), the MIC [2, 15] was 0.023 µg/mL (≈ 0.0658 µM) and the MIC [2, 16] was 12 µg/mL (≈ 34.4 µM). The MIC [2, 17] was 8 µg/mL (≈ 22.9 µM), the MIC [2, 18] was 6 µg/mL (≈ 17.2 µM) and the MIC [2, 19] was 6 to 12 µg/mL (≈ 17.2 to 34.4 µM). For the same molecule, the MIC [2, 20] was 0.036 µg/mL (≈ 0.103 µM).

`CCC(C)n1ncn(-c2ccc(N3CCN(c4ccc(OCC5COC(Cn6cncn6)(c6ccc(Cl)cc6Cl)O5)cc4)CC3)cc2)c1=O` (stereo not shown) [ITCZ, itraconazole] was tested, and the MIC range [2] was under 0.002 to 0.75 µg/mL, the MIC [2, 3] was 0.047 µg/mL (≈ 0.0666 µM) and the MIC [2, 4] was 0.002 µg/mL (≈ 0.00283 µM). The MIC [2, 5] was 0.23 µg/mL (≈ 0.326 µM), the MIC [2, 6] was 0.018 µg/mL (≈ 0.0255 µM) and the MIC [2, 21] was 0.5 µg/mL (≈ 0.709 µM). For the same molecule, the MIC [2, 7] was 0.064 µg/mL (≈ 0.0907 µM), the MIC [2, 8] was 0.38 µg/mL (≈ 0.539 µM) and the MIC [2, 9] was 0.25 µg/mL (≈ 0.354 µM). For the same molecule, the MIC [2, 10] was 0.23 µg/mL (≈ 0.326 µM), the MIC [2, 11] was 0.75 µg/mL (≈ 1.06 µM) and the MIC [2, 12] was 0.19 µg/mL (≈ 0.269 µM). For the same molecule, the MIC [2, 13] was 0.125 µg/mL (≈ 0.177 µM), the MIC [2, 14] was 0.125 µg/mL (≈ 0.177 µM) and the MIC [2, 15] was 0.38 µg/mL (≈ 0.539 µM). The MIC [2, 16] was over 32 µg/mL, the MIC [2, 17] was over 32 µg/mL and the MIC [2, 18] was over 32 µg/mL. For the same molecule, the MIC [2, 19] was over 32 µg/mL and the MIC [2, 20] was 0.235 µg/mL (≈ 0.333 µM).

In the case of `OC(Cn1cncn1)(Cn1cncn1)c1ccc(F)cc1F` [FLCZ, fluconazole], the MIC range [2] is reported as under 0.016 to 128 µg/mL, the MIC [2, 3] is reported as 3 µg/mL (≈ 9.8 µM) and the MIC [2, 4] is reported as under 0.016 µg/mL. It also gave an MIC [2, 5] of 6 µg/mL (≈ 19.6 µM), an MIC [2, 6] of 16 µg/mL (≈ 52.2 µM) and an MIC [2, 21] of 32 µg/mL (≈ 104 µM). For the same molecule, the MIC [2, 7] was 2 µg/mL (≈ 6.53 µM), the MIC [2, 8] was 1.5 µg/mL (≈ 4.9 µM) and the MIC [2, 9] was over 256 µg/mL. It also gave an MIC [2, 10] of 1.5 µg/mL (≈ 4.9 µM), an MIC [2, 11] of 14 µg/mL (≈ 45.7 µM) and an MIC [2, 12] of 1.5 µg/mL (≈ 4.9 µM). The MIC [2, 13] was 1.5 µg/mL (≈ 4.9 µM), the MIC [2, 14] was 0.75 µg/mL (≈ 2.45 µM) and the MIC [2, 15] was 128 µg/mL (≈ 418 µM). The MIC [2, 16] was over 256 µg/mL, the MIC [2, 17] was over 256 µg/mL and the MIC [2, 18] was over 256 µg/mL. It also gave an MIC [2, 19] of over 256 µg/mL and an MIC [2, 20] of 17.3 µg/mL (≈ 56.5 µM).
